Experimental data: patent US9023852B2, “1, 2, 4-thiadiazol-5-ylpiperazine derivatives useful in the treatment of neurodegenerative diseases” (Remynd NV, priority 2011, dated 2015)

Each compound was assayed on M17—3TAU(P301L) cells (assay: Neuroblastoma tauopathy model: inhibition of TAU-induced cytotoxicity (LDH)). Conditions: Homo sapiens, 168 h; inhibition of TAU-induced toxicity (LDH), 7 days differentiation with retinoic acid.
Type: cell-based
Excerpt: A TAU expression plasmid was constructed by sub-cloning the cDNA encoding for human TAU-P301L protein, wherein proline at position 301 is substituted by a leucine residue, into mammalian expression vector pcDNA3.1 resulting in the plasmid pcDNA3.1-TAUP301L. Plasmids pcDNA3.1 and pcDNA3.1-TAU P301L were transfected into human neuroblastoma cells (BE-M17; ATCC No. CRL-2267™) using lipofectamine reagent and subsequently, independent clonal cell lines with the plasmids stably integrated into the genome were selected by antibiotic resistance selection (Geneticin (G418)), resulting in cell lines M17.pcDNA3 and M17—3TAUP301L. Expression of the TAUP301L gene in the M17—3TAUP301L cells was confirmed by Western blot analysis.
Differentiation of the cells with RA leads to phosphorylation and subsequent aggregation of TAU, inducing a tauopathy in these cells. Cytotoxicity of cells was measured by quantification of lactate dehydrogenase (LDH) levels. In dead cells LDH is leaked out of the cells into the medium due to a loss of plasma-membrane integrity.
Briefly, 3 days preceding the experiment pre-cultures of M17.pcDNA3 and M17—3TAU(P301L) cells were prepared, starting from a stock culture, at a density of 50.000-100.000 cells/cm2 in detection medium (Optimem Reduced Serum without phenol red (Gibco, Cat. 31985-047) supplemented with 1% fetal calf serum (FCS), 1 mM sodium pyruvate, 1× non-essential amino acids (NEAA), 500 μg/ml G418 and 0.5× antibiotic/antimycotic (ABAM)). At the day of the experiment these precultures were diluted to ˜0, 1.106 cells/ml in detection medium without FCS and 60 μL of this suspension is dispensed per well into a 96-well microtiter plate. After 3 hours of incubation at 37° C./5% CO2 an equal volume of detection medium containing 2.5 μM RA was added and subsequently incubated for 7 days at 37° C./5% CO2. After 7 days, LDH activity was determined using the Promega Cytotox 96 Non-Radioactive cytotoxicity assay (Cat. G1780), according the manufacturer's instructions. Cytotoxicity is measured as the ratio of LDH increase in the supernatant divided by the LDH increase in the total cell suspension (sum of the LDH measured in cells and supernatant).
The M17—3TAU(P301L) cell line makes it possible to assess the ability of novel compounds to inhibit TAU-induced cytotoxicity. […] Compounds were tested for their ability to hamper TAU-induced toxicity at different concentrations, ranging from low non-effective concentrations to high potent concentrations. Afterwards, the dose-dependent inhibition curve was used to calculate their EC50 (Table 1).

Compound	EC50 [nM]
Cc1ccccc1CN1CCN(c2nc(-c3ccc(Cl)cc3)ns2)CC1 [Example 12, 1-[3-(4-Chloro-phenyl)-[1,2,4]thiadiazol-5-yl]-4-(2-methyl-benzyl)-piperazine]	268
COc1cc(CCN2CCN(c3nc(-c4cc(Cl)ccn4)ns3)CC2)ccn1 [Example 127, 1-[3-(4-Chloro-pyridin-2-yl)-[1,2,4]thiadiazol-5-yl]-4-[2-(2-methoxy-pyridin-4-yl)-ethyl]-piperazine]	109
FC(F)(F)Oc1cccc(CCN2CCN(c3nc(-c4ccc(Cl)cc4)ns3)CC2)c1 [Example 38, 1-[3-(4-Chloro-phenyl)-[1,2,4]thiadiazol-5-yl]-4-[2-(3-trifluoromethoxy-phenyl)-ethyl]-piperazine]	211
Cc1ncc(-c2nsc(N3CCN(CCc4ccc(F)cc4)CC3)n2)cn1 [Example 181, 5-(4-(4-fluorophenethyl)piperazin-1-yl)-3-(2-methylpyrimidin-5-yl)-1,2,4-thiadiazole]	31.6
COc1ccc(CCN2CCN(c3nc(-c4cccc(OC)c4)ns3)CC2)cc1 [Example 18, 1-[2-(4-Methoxy-phenyl)-ethyl]-4-[3-(3-methoxy-phenyl)[1,2,4]thiadiazol-5-yl]-piperazine]	367
COc1ccc(CCN2CCN(c3nc(-c4cncc(Cl)c4)ns3)CC2)cc1 [Example 91, 1-[3-(5-Chloro-pyridin-3-yl)-[1,2,4]thiadiazol-5-yl]-4-[2-(4-methoxy-phenyl)-ethyl]-piperazine]	0.9
Cc1ccc(-c2nsc(N3CCN(CCc4ccc(Cl)cc4)CC3)n2)cn1 [Example 98, 1-[2-(4-Chloro-phenyl)-ethyl]-4-[3-(6-methyl-pyridin-3-yl)-[1,2,4]thiadiazol-5-yl]-piperazine]	80.6
COc1ccc(CCN2CCN(c3nc(-c4ccccc4Cl)ns3)CC2)cc1 [Example 58, 1-[3-(2-Chloro-phenyl)-[1,2,4]thiadiazol-5-yl]-4-[2-(4-methoxy-phenyl)-ethyl]-piperazine]	2.2
Fc1ccc(-c2nsc(N3CCN(CCc4cccc(C(F)(F)F)c4)CC3)n2)cc1F [Example 158, 3-(3,4-difluorophenyl)-5-(4-(3-(trifluoromethyl)phenethyl)piperazin-1-yl)-1,2,4-thiadiazole]	998
Cc1ccc(-c2nsc(N3CCN(CCCc4ccccc4)CC3)n2)cc1 [Example 155, 5-(4-(3-phenylpropyl)piperazin-1-yl)-3-(p-tolyl)-1,2,4-thiadiazole]	976
Cc1ccc(-c2nsc(N3CCN(CCc4ccc(Cl)c(Cl)c4)CC3)n2)cc1 [Example 5, 1-[2-(3,4-Dichloro-phenyl)-ethyl]-4-(3-p-tolyl-[1,2,4]thiadiazol-5-yl)-piperazine]	396
COc1cccc(CCCN2CCN(c3nc(-c4ccc(Cl)cc4)ns3)CC2)c1 [Example 32, 1-[3-(4-Chloro-phenyl)-[1,2,4]thiadiazol-5-yl]-4-[3-(3-methoxy-phenyl)-propyl]-piperazine]	368
COc1cccc(CCN2CCN(c3nc(-c4ccccc4OC)ns3)CC2)c1 [Example 35, 1-[2-(3-Methoxy-phenyl)-ethyl]-4-[3-(2-methoxy-phenyl)-[1,2,4]thiadiazol-5-yl]-piperazine]	3.5
COc1ccc(CCN2CCN(c3nc(-c4ccccc4OC)ns3)CC2)cc1 [Example 45, 1-[2-(4-Methoxy-phenyl)-ethyl]-4-[3-(2-methoxy-phenyl)[1,2,4]thiadiazol-5-yl]-piperazine]	0.7
Cc1ccc(-c2nsc(N3CCN(CCc4ccc(F)cc4)CC3)n2)cn1 [Example 96, 1-[2-(4-Fluoro-phenyl)-ethyl]-4-[3-(6-methyl-pyridin-3-yl)-[1,2,4]thiadiazol-5-yl]-piperazine]	28.1
Fc1ccc(CCN2CCN(c3nc(-c4cccc(Cl)c4)ns3)CC2)cc1F [Example 135, 1-[3-(3-Chloro-phenyl)-[1,2,4]thiadiazol-5-yl]-4-[2-(3,4-difluoro-phenyl)-ethyl]-piperazine]	4.5
Fc1cccc(CCN2CCN(c3nc(-c4ccc(Cl)cc4)ns3)CC2)c1 [Example 21, 1-[3-(4-Chloro-phenyl)-[1,2,4]thiadiazol-5-yl]-4-[2-(3-fluoro-phenyl)-ethyl]-piperazine]	9.5

Compound	EC50 [nM]
COc1cc(CCN2CCN(c3nc(-c4ccc(F)c(F)c4)ns3)CC2)ccn1 [Example 106, 1-[3-(3,4-Difluoro-phenyl)-[1,2,4]thiadiazol-5-yl]-4-[2-(2-methoxy-pyridin-4-yl)-ethyl]-piperazine]	3
Cc1ccccc1CN1CCN(c2nc(-c3cccc(F)c3)ns2)CC1 [Example 99, 1-[3-(3-Fluoro-phenyl)-[1,2,4]thiadiazol-5-yl]-4-(2-methyl-benzyl)-piperazine]	271
N#Cc1ccc(-c2nsc(N3CCN(CCc4ccc(F)cc4)CC3)n2)cc1 [Example 110, 4-(5-{4-[2-(4-Fluoro-phenyl)-ethyl]piperazin-1-yl}-[1,2,4]thiadiazol-3-yl)-benzonitrile]	17.8
COc1ccc(CCN2CCN(c3nc(-c4cccs4)ns3)CC2)cc1 [Example 44, 1-[2-(4-Methoxy-phenyl)-ethyl]-4-(3-thiophen-2-yl-[1,2,4]thiadiazol-5-yl)-piperazine]	2.3
Fc1ccc(CCN2CCN(c3nc(-c4ccc(F)c(F)c4)ns3)CC2)cc1 [Example 103, 1-[3-(3,4-Difluoro-phenyl)-[1,2,4]thiadiazol-5-yl]-4-[2-(4-fluoro-phenyl)-ethyl]-piperazine]	3.4
CC(C)Oc1ccc(CCN2CCN(c3nc(-c4ccc(Cl)cc4)ns3)CC2)cc1 [Example 71, 1-[3-(4-Chloro-phenyl)-[1,2,4]thiadiazol-5-yl]-4-[2-(4-isopropoxy-phenyl)-ethyl]-piperazine]	429
COc1cc(CCN2CCN(c3nc(-c4cncc(Cl)c4)ns3)CC2)ccn1 [Example 133, 1-[3-(5-Chloro-pyridin-3-yl)-[1,2,4]thiadiazol-5-yl]-4-[2-(2-methoxy-pyridin-4-yl)-ethyl]-piperazine]	1.4
Fc1ccc(CCN2CCN(c3nc(-c4ccc(F)c(F)c4)ns3)CC2)cc1F [Example 136, 1-[2-(3,4-Difluoro-phenyl)-ethyl]-4-[3-(3,4-difluoro-phenyl)-[1,2,4]thiadiazol-5-yl]-piperazine]	6.2
Cc1ccc(-c2nsc(N3CCN(Cc4ccccc4C)CC3)n2)cc1 [Example 6, 1-(2-Methyl-benzyl)-4-(3-p-tolyl-[1,2,4]thiadiazol-5-yl)-piperazine]	278
Cc1ccc(CCN2CCN(c3nc(-c4ccc(Cl)cc4)ns3)CC2)cc1 [Example 26, 1-[3-(4-Chloro-phenyl)-[1,2,4]thiadiazol-5-yl]-4-(2-p-tolyl-ethyl)-piperazine]	4.9
COc1ccccc1CCN1CCN(c2nc(-c3ccc(Cl)cc3)ns2)CC1 [Example 27, 1-[3-(4-Chloro-phenyl)-[1,2,4]thiadiazol-5-yl]-4-[2-(2-methoxy-phenyl)-ethyl]-piperazine]	16.7
COc1cccc(CCN2CCN(c3nc(-c4cnccn4)ns3)CC2)c1 [Example 77, 2-(5-{4-[2-(3-Methoxy-phenyl)-ethyl]-piperazin-1-yl}-[1,2,4]thiadiazol-3-yl)-pyrazine]	261
Clc1cccc(-c2nsc(N3CCN(CCC4CCCCC4)CC3)n2)c1 [Example 162, 3-(3-chlorophenyl)-5-(4-(2-cyclohexylethyl)piperazin-1-yl)-1,2,4-thiadiazole]	3.3
COc1ccc(CCN2CCN(c3nc(-c4ccc(C)nc4)ns3)CC2)cc1 [Example 95, 1-[2-(4-Methoxy-phenyl)-ethyl]-4-[3-(6-methyl-pyridin-3-yl)-[1,2,4]thiadiazol-5-yl]-piperazine]	3.1
FC(F)(F)c1ccc(CCN2CCN(c3nc(-c4cncc(Cl)c4)ns3)CC2)cc1 [Example 152, 1-[3-(5-Chloro-pyridin-3-yl)-[1,2,4]thiadiazol-5-yl]-4-[2-(4-trifluoromethyl-phenyl)-ethyl]-piperazine]	215
COc1cccc(CCN2CCN(c3nc(-c4ccc(Cl)cc4)ns3)CC2)c1 [Example 14, 1-[3-(4-Chloro-phenyl)-[1,2,4]thiadiazol-5-yl]-4-[2-(3-methoxy-phenyl)-ethyl]-piperazine]	4.8
Cc1ncc(-c2nsc(N3CCN(CCc4ccc(F)c(F)c4)CC3)n2)cn1 [Example 182, 5-(4-(3,4-difluorophenethyl)piperazin-1-yl)-3-(2-methylpyrimidin-5-yl)-1,2,4-thiadiazole]	192
